Results: patent US8703785B2, “2-aminopyrimidin-4-one and 2-aminopyridine derivatives both having BACE1-inhibiting activity” (Shionogi & Co., Ltd., priority 2008, dated 2014)
pIC50: −log10 of the molar value. Like-named read-outs stand apart in the source and are kept apart here.

Legend:
[1] = Solubility test; type: physicochemical; conditions: artificial intestinal juice (phosphate buffer) with 1% DMSO, fassgf or other biorelevant, kinetic from dmso stock, artificial intestinal juice pH 6.8, 16 hours at 25° C.
Method: The solubility of each compound was determined under 1% DMSO addition conditions. A 10 mM solution of the compound was prepared with DMSO, and 6 μL of the compound solution was added to 594 μL of an artificial intestinal juice (water and 118 mL of 0.2 mol/L NaOH reagent were added to 250 mL of 0.2 mol/L potassium dihydrogen phosphate reagent to reach 1000 mL) with a pH of 6.8. The mixture was left standing for 16 hours at 25° C., and the mixture was vacuum-filtered. The filtrate was two-fold diluted with methanol/water=1/1, and the compound concentration in the filtrate was measured with HPLC or LC/MS/MS by the absolute calibration method.

[2] = target: Recombinant human BACE-1 (Homo sapiens (Human), UniProt P56817); test: Measurement of BACE1 inhibitory activity; type: biochemical; conditions: Recombinant human BACE-1 7.4 nM, substrate peptide 18 nM, pH 5.0, 3 hours at 30° C.; read-out: IC50 (BACE1 enzyme activity)
Method: First, 48.5 μl portions of a solution of substrate peptide (Biotin-XSEVNLDAEFRHDSGC-Eu: X=ε-amino-n-capronic acid, Eu=Europium cryptate) were put into respective wells of a 96-well half area microplate (black microplate, Costar). Then, 0.5 μl of a test compound (DMSO (dimethyl sulfoxide) solution) and 1 μl of Recombinant human BACE-1 (R&D systems) were added to each of the wells, and they were reacted for 3 hours at 30° C. […] The final concentration of the substrate peptide was set to 18 nM, and the final concentration of Recombinant human BACE-1 was set to 7.4 nM. The reaction buffer used was a sodium acetate buffer (50 mM sodium acetate, pH 5.0, 0.008% Triton X-100). After the reaction finished, 50 μl portions of a 8.0 μg/ml solution of Streptavidin-XL665 (CIS bio international) in a phosphate buffer (150 mM K2HPO4—KH2PO4, pH 7.0, 0.008% Triton X-100, 0.8 M KF) were added to the respective wells, and the plate was left standing for 1 hour at 30° C. Thereafter, the fluorescence intensity (excitation wavelength: 320 nm, measurement wavelength: 620 nm and 665 nm) was measured with a Wallac 1420 multilabel counter (Perkin Elmer life sciences). The enzyme activity was determined from the count rate at each measurement wavelength (10000× Count 665/Count 620), and the amount needed to inhibit the enzyme activity by 50% (IC50) was calculated.

[3] = tested on: Neuroblastoma SH-SY5Y cells (SH/APPwt) with human wild-type β-APP excessively expressed; test: Measurement of β-amyloid (Aβ) production inhibitory effect in cell; type: cell-based; conditions: 24 hours incubation, Amyloid-β 1-40 HTRF
Method: Neuroblastoma SH-SY5Y cells (SH/APPwt) with human wild-type β-APP excessively expressed therein were prepared at 8×10^5 cells/mL, and 150 μl portions thereof were inoculated into respective wells of a 96-well culture plate (Falcon). The cells were cultured for 2 hours at 37° C. in a 5% gaseous carbon dioxide incubator. […] Namely, the final DMSO concentration was 1%, and the amount of the cell culture was 200 μl. After the incubation was performed for 24 hours from the addition of the test compound, 100 μl of the culture supernatant was collected from each fraction. The amount of the Aβ in each fraction was measured. The Aβ amount was measured as follows. 10 μl of a homogeneous time resolved fluorescence (HTRF) measurement reagent (Amyloid-β 1-40 peptide; IBA Molecular Holding, S.A.) and 10 μl of the culture supernatant were put into a 384-well half area microplate (black microplate, Costar) and mixed with each other, and then left standing overnight at 4° C. while the light was shielded. Then, the fluorescence intensity (excitation wavelength: 337 nm, measurement wavelength: 620 nm and 665 nm) was measured with a Wallac 1420 multilabel counter (Perkin Elmer life sciences).

[4] = Metabolic stability test; type: in vitro ADME; conditions: human liver microsomes 0.5 mg protein/mL, NADPH, 30 minutes at 37° C., compound concentration 2 μM
Method: The target compound was reacted with commercially available pooled human liver microsomes for a predetermined time period. The residual rate was calculated by comparing the reacted sample and unreacted sample, and thus the degree of metabolism in liver was evaluated.
In 0.2 mL of a buffer (50 mmol/L tris-HCl pH 7.4, 150 mmol/L potassium chloride, 10 mmol/L magnesium chloride) containing human liver microsomes 0.5 mg protein/mL, reaction was carried out in the presence of 1 mmol/L NADPH for 0 minute or 30 minutes at 37° C. (oxidative reaction). After the reaction, 50 μL of the reaction solution was added to and mixed with 100 μL of a solution of methanol/acetonitrile=1/1 (v/v), and the mixture was centrifuged for 15 minutes at 3000 rpm. The test compound in the centrifuged supernatant was quantified by LC/MS/MS, and the residual amount of the test compound after the reaction was calculated based on the compound amount at 0-minute reaction set as 100%.
(Results) The residual rate at a compound concentration of 2 μM is shown below.

[5] = target: CYP1A2 (Homo sapiens (Human), UniProt P05177); test: CYP inhibition test (CYP1A2); type: in vitro ADME
Description: (§1) Using commercially available pooled human liver microsomes and employing typical substrate metabolic reactions of 5 major species of human CYP enzymes (CYP1A2, 2C9, 2C19, 2D6, 3A4), namely, O-deethylation of 7-ethoxyresorufin (CYP1A2), methyl-hydroxylation of tolbutamide (CYP2C9), 4′-hydroxylation of mephenyloin (CYP2C19), O-demethylation of dextromethorphan (CYP2D6), and hydroxylation of terfenadine (CYP3A4), as indicator reactions, the degree of inhibition of each metabolite production by each test compound was evaluated.
(§2) The reaction conditions were as follows:
(§3) Substrate: 0.5 μmol/L of ethoxyresorufin (CYP1A2), 100 μmol/L of tolbutamide (CYP2C9), 50 μmol/L of S-mephenyloin (CYP2C19), 5 μmol/L of dextromethorphan (CYP2D6), 1 μmol/L of terfenadine (CYP3A4); […]
(§4) As a reaction solution, the respective five substrates, human liver microsomes, and test compound in the aforementioned amounts were added to a 50 mM Hepes buffer in a 96-well microplate. […] Centrifugation was performed for 15 minutes at 3000 rpm, and each metabolite in the centrifuged supernatant was quantified. Namely, resorufin (CYP1A2 metabolite) was quantified with a fluorescence multilabel counter, and hydroxylated tolbutamide (CYP2C9 metabolite), 4′-hydroxylated mephenyloin (CYP2C19 metabolite), dextrorphan (CYP2D6 metabolite) and alcoholized terfenadine (CYP3A4 metabolite) were quantified with LC/MS/MS. […]

[6] = target: T1, CYP3A4 (Homo sapiens (Human), UniProt P08684); test: CYP inhibition test (CYP3A4); type: in vitro ADME; conditions: pooled human liver microsomes, hydroxylation of terfenadine
Description: as §1, §2, §3, §4

[7] = target: CYP2D6 (Homo sapiens (Human), UniProt P10635); test: CYP inhibition test (CYP2D6); type: in vitro ADME; conditions: pooled human liver microsomes, O-demethylation of dextromethorphan
Description: as §1, §2, §3, §4

[8] = target: CYP2C19 (Homo sapiens (Human), UniProt P33261); test: CYP inhibition test (CYP2C19); type: in vitro ADME; conditions: pooled human liver microsomes, 4′-hydroxylation of mephenyloin
Description: as §1, §2, §3, §4

[9] = target: CYP2C9 (Homo sapiens (Human), UniProt P11712); test: CYP inhibition test (CYP2C9); type: in vitro ADME; conditions: pooled human liver microsomes, methyl-hydroxylation of tolbutamide
Description: as §1, §2, §3, §4

[10] = target: T1, CYP3A4; test: CYP3A4 fluorescent MBI test; type: in vitro ADME; conditions: E. coli-expressing CYP3A4, 7-BFC substrate, pre-reaction 0 or 30 minutes
Method: The CYP3A4 fluorescent MBI test is a test to examine enhancement of CYP3A4 inhibition by metabolic reaction of the compound. Here, E. coli-expressing CYP3A4 was used as an enzyme, and a reaction wherein 7-benzyloxy trifluoromethylcumarin (7-BFC) was debenzylated by the CYP3A4 enzyme into a fluorescent metabolite 7-hydroxytrifluoromethylcumarin (HFC) was employed as an indicator reaction. The reaction conditions were as follows.
Substrate: 5.6 μmol/L 7-BFC
Pre-reaction time: 0 or 30 minutes
Reaction time: 15 minutes
Reaction temperature: 25° C. (room temperature)
CYP3A4 content (E. coli-expressing enzyme): 62.5 pmol/mL at pre-reaction, […] at reaction (10-fold diluted) […]
The enzyme and a test compound solution were added to a K-Pi buffer (pH 7.4) in the aforementioned amounts for the pre-reaction so that a pre-reaction solution was prepared, and this solution was put into a 96-well microplate. […] With respect to each of the microplates on which the indicator reaction was performed, the fluorescence value of the metabolite 7-HFC was measured with a fluorescence plate reader (Ex=420 nm, Em=535 nm). […] The remaining activity (%) at each concentration after adding the test compound solution was calculated, and the IC50 value was calculated from the concentration and inhibition percentage by inverse estimation with the logistic model. […]

T1 sequence (P08684 whole entry): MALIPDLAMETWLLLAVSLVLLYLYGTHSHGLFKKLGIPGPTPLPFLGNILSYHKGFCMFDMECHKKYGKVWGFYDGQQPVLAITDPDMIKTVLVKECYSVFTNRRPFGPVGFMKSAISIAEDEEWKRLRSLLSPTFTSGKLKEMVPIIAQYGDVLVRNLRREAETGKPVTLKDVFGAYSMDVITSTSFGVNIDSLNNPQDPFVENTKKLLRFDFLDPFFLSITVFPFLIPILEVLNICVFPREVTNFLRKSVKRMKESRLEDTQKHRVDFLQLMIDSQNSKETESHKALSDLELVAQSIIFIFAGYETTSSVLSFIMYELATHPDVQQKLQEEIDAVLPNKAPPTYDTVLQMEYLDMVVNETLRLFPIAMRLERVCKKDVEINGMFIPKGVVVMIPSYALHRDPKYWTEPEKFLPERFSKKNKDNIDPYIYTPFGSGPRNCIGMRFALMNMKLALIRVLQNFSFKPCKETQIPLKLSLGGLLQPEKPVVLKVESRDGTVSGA
Chain of Recombinant human BACE-1 (P56817 46-501): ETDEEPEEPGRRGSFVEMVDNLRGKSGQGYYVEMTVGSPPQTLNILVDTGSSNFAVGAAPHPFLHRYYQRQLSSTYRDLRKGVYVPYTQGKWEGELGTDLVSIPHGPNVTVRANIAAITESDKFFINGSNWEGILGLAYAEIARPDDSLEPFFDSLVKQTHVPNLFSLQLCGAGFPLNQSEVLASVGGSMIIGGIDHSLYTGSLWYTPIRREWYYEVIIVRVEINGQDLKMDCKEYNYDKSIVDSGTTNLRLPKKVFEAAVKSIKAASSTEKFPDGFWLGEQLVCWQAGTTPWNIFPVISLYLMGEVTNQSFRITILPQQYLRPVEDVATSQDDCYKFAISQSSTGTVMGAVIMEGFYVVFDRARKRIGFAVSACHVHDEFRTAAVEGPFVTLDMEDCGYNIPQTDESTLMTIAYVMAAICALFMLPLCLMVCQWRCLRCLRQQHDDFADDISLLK
Chain of CYP2C9 (P11712 whole entry): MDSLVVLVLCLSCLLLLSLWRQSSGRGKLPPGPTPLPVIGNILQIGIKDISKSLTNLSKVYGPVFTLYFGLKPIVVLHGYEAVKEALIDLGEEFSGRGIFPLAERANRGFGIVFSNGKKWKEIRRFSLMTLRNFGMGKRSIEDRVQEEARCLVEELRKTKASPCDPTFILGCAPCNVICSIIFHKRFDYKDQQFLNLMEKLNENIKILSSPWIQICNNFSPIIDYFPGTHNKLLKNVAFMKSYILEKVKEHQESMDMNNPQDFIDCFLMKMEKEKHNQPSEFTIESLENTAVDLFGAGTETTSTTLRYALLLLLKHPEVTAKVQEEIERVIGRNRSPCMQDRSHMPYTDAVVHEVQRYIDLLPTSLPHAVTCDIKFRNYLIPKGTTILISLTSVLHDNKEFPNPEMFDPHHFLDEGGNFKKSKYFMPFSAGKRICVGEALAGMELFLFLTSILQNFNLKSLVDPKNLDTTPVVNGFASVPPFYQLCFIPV
Chain of CYP2D6 (P10635 whole entry): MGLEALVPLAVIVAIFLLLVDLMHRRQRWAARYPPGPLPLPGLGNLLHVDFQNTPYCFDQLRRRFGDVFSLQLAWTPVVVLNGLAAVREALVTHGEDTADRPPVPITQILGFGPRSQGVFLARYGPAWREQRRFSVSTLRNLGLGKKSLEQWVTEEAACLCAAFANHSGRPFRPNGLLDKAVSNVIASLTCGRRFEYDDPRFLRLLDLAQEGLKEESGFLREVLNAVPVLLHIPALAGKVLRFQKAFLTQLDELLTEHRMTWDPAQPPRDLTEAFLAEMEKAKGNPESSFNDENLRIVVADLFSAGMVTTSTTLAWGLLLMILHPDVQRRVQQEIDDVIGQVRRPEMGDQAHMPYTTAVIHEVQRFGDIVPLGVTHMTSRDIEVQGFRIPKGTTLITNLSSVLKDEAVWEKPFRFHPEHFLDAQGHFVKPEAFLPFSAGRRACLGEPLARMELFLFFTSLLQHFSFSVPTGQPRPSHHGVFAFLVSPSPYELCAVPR
Chain of CYP2C19 (P33261 whole entry): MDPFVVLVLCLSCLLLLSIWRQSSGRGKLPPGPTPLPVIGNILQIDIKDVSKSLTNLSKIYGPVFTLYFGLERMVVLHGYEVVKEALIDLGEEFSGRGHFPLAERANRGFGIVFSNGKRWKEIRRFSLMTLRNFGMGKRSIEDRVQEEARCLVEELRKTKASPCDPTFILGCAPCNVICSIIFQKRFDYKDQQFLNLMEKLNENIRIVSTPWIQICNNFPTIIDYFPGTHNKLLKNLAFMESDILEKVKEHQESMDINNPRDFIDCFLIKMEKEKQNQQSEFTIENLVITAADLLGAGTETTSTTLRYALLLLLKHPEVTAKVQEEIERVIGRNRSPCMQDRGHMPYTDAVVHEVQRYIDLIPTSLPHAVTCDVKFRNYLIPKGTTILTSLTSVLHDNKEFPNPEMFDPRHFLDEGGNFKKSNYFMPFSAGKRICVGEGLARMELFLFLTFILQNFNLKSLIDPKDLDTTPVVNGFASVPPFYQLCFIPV
Chain of CYP1A2 (P05177 whole entry): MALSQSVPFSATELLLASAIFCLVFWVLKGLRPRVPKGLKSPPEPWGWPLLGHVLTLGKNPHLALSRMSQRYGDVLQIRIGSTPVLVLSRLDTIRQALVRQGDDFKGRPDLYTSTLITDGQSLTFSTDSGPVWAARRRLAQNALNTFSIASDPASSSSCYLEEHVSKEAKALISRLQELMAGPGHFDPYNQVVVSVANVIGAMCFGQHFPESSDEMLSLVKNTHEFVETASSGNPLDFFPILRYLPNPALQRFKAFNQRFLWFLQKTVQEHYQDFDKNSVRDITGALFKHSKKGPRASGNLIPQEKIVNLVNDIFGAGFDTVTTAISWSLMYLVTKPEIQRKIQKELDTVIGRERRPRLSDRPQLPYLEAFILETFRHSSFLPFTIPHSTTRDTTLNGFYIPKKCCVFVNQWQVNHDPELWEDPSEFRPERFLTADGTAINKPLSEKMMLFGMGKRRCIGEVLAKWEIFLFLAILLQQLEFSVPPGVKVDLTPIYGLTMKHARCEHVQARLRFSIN

SMILES | pIC50 [2] | pIC50 [3] | further results
CC#CCOc1cnc(C(=O)Nc2cccc(C3(C)CC(=O)N(C)C(N)=N3)c2)cn1 (stereo not shown) [Compound 44] | 7.92 | 9.15 | pIC50 [5]: < 4.70; pIC50 [6]: < 4.70; pIC50 [7]: < 4.70; pIC50 [8]: < 4.70; pIC50 [9]: < 4.70
C#CCOc1cnc(C(=O)Nc2cccc(C3(C)CC(=O)N(C)C(N)=N3)c2)cn1 (stereo not shown) [Compound 43] | 7.25 | 7.54 | IC50 difference without vs with pre-reaction [10]: ≤ 3000 nM
CN1C(=O)CC(C)(c2cccc(NC(=O)c3cnc(Cl)cn3)c2)N=C1N (stereo not shown) [Compound 34] | 7.43 | 7.12 | –
COc1cnc(C(=O)Nc2cccc(CNc3cccnc3N)c2)cn1 [Compound 473] | 5.70 | 6.32 | solubility at 16 h [1]: > 50 µM; pIC50 ([5]; pooled human liver microsomes, O-deethylation of 7-ethoxyresorufin, read-out: IC50 CYP1A2 inhibition): < 4.70; pIC50 [6]: < 4.70; pIC50 [7]: < 4.70; pIC50 [8]: < 4.70; pIC50 [9]: < 4.70

Further lines, with some results ahead:

pIC50 [2] | pIC50 [3] | SMILES | further results
5.50 | 6.09 | COCCOc1cnc(C(=O)Nc2cccc(CNc3cccnc3N)c2)cn1 [Compound 478] | solubility at 16 h [1]: > 50 µM
7.38 | 8.18 | COc1cnc(C(=O)Nc2cccc(C3(C)CC(=O)N(C)C(N)=N3)c2)cn1 (stereo not shown) [Compound 35] | residual rate [4]: 99.5%
6.74 | 7.11 | C#CCOc1cnc(C(=O)Nc2cccc(CNc3cccnc3N)c2)cn1 [Compound 481] | –
– | 7.43 | C[C@@H](NC(=O)c1cc(C(=O)N[C@@H](Cc2ccccc2)[C@H](O)CNC2CC2)cc(N(C)S(C)(=O)=O)c1)c1ccccc1 [Reference Compound, reference compound] | –
7.14 | 7.36 | CC#CCOc1cnc(C(=O)Nc2cccc(CNc3cccnc3N)c2)cn1 [Compound 482] | –
